Where “and” joins values, the source holds several entries; their conditions need not be identical. Equal values may be shown once. Calls of active or inactive are those of the source.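 Rule for the calls: active = compounds giving half or more protection of infected cells from virus-caused growth loss, again on retest; inactive = the rest.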
Test system: CEM cells HIV-1 protection, formazan growth assay
Test: NCI AIDS Antiviral Assay
Details: for IC50: measured here: growth of uninfected CEM cells
How it was run: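 CEM (human) cells, HIV-1 infected vs uninfected, 5-point dosing, formazan growth read-out. Retest threshold 50% protection.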

## CC(=O)Oc1ccc2cc(Oc3cc(Cl)c(Cl)cc3Cl)c(=O)oc2c1
  EC50: > 200 µM
  IC50: 93.3 µM

## OC1(c2cccnc2)c2ccccc2Oc2ccccc21
  EC50: > 200 µM
  IC50: 79.4 µM

## COc1ccc(N=Nc2c(-c3ccccc3)nn(C(=O)CC(=O)Nc3cccc(Cl)c3)c2-c2ccccc2)cc1
  EC50: > 18.2 µM
  IC50: > 18.2 µM

## CC#N.CC#N.COC(=O)[C@@H]1CN(C(=O)Cc2ccccc2)C(=O)[N-]1.COC(=O)[C@@H]1CN(C(=O)Cc2ccccc2)C(=O)[N-]1.COC(=O)[C@@H]1CN(C(=O)Cc2ccccc2)C(=O)[N-]1.COC(=O)[C@@H]1CN(C(=O)Cc2ccccc2)C(=O)[N-]1.[Rh+2].[Rh+2]
  EC50: > 12 µM
  IC50: 11 µM

## COc1ccc(C2c3cc4c(cc3OC(NCCO)C2C)OCO4)cc1 (configuration not stated)
  EC50: > 200 µM
  IC50: 21.9 µM

## COC1=NC2=CC(=O)c3c(c(OC(C)=O)c(C)c4c3C(=O)C(C)(O/C=C/C(OC)C(C)C(OC(C)=O)C(C)C(O)C(C)C(OC(C)=O)C(C)/C=C/C=C\1C)O4)C2=O (configuration not stated)
  EC50: > 200 µM
  IC50: 16.6 µM

## COc1ccc(N2C(=O)C3c4[nH]c5ccc(C)cc5c4C4CCC(c5ccccc5)CC4C3C2=O)cc1 (configuration not stated)
  outcome: inactive

## O=C(O)/N=N\C(=O)O
  EC50: > 151 µM
  IC50: > 151 µM

## COc1ccc(N2C(=O)C3CC(c4ccc(Br)cc4)c4c([nH]c5ccccc45)C3C2=O)cc1 (configuration not stated)
  EC50: > 14.5 µM
  IC50: 11 µM

## O=c1cc(-c2ccc(O)cc2)oc2cc(O[C@@H]3O[C@H](CO)[C@@H](O)[C@H](O)[C@H]3O)cc(O)c12
  EC50: > 200 µM
  IC50: 4.57 µM

## Oc1ccccc1C=NCc1ccco1
  outcome: inactive

## COc1cc2c(c(O)c1OC)C(=O)[C@@H]1CCC(=O)N1C2c1ccccc1 (some centres not stated)
  EC50: > 200 µM
  IC50: 83.2 µM

## CC(/C=N\NC(=S)N1CCCCC1)=N/NC(=S)N1CCCCC1
  EC50: > 200 µM
  IC50: 1.78 µM

## Cc1cc(C)n2nc3c4ccsc4ncc3c2n1
  EC50: > 45.7 µM
  IC50: > 45.7 µM

## CC(=O)[C@H]1CC[C@H]2[C@@H]3C=CC4=CC(=O)CC[C@@]4(C)[C@@H]3CC[C@]12C
  EC50: > 126 µM
  IC50: 79.4 µM

## NC1=NC2OC(CO)C(O)C2O1 (configuration not stated)
  EC50: > 200 µM
  IC50: > 200 µM

## O=P(O)(O)c1ccccc1Oc1ccccc1
  EC50: > 200 µM
  IC50: > 200 µM

## CCc1nnc(CC)n1-n1c(Cc2ccccc2)n[nH]c1=O
  EC50: > 200 µM
  IC50: > 200 µM

## O=C(/C=C/c1ccccc1)c1ccc(NCc2nc3ccccc3[nH]2)cc1
  EC50: > 20.4 µM
  IC50: 11 µM

## COC(=O)/C(=N\Nc1nc(=S)[nH]n1N)C(C#N)c1ccc(Cl)cc1 (configuration not stated)
  EC50: > 37.2 µM
  IC50: > 37.2 µM

## NC(CCc1ncc(-c2ccccc2)s1)C(=O)O (configuration not stated)
  outcome: inactive

## COc1ccccc1N=Nc1c(S(=O)(=O)O)cc2cc(NC(=O)Nc3ccc4c(O)c(N=Nc5c(N)ccc6cc(S(=O)(=O)O)ccc56)c(S(=O)(=O)O)cc4c3)ccc2c1O
  outcome: active

## O=[N+]([O-])c1ccc(C2=Nc3ccccc3N=C(c3ccccc3O)C2)cc1
  EC50: > 200 µM
  IC50: > 200 µM

## CN(C)C1C(=O)C(C(N)=O)=C(O)C2(O)C(=O)C3=C(O)c4c(O)cccc4C(C)(O)C3CC12 (configuration not stated)
  EC50: > 562 µM
  IC50: 40.7 µM and 10.7 µM

## N#CCCN(CCC#N)c1ccc(/C=C2\N=C(c3ccccc3)N(NC(=O)c3ccncc3)C2=O)cc1
  EC50: > 200 µM
  IC50: 191 µM

## NS(=O)(=O)c1cc2c(cc1Cl)NC(CC1CCCC1)NS2(=O)=O (configuration not stated)
  EC50: > 200 µM
  IC50: > 200 µM

## CC(O)(/C=C/c1ccccc1)P(=O)(O)c1ccccc1 (configuration not stated)
  EC50: > 200 µM
  IC50: > 200 µM

## C=CCNC(=S)Nc1ccc(Cl)cc1
  EC50: > 200 µM
  IC50: 120 µM

## COC(=O)c1ccccc1CC1Cc2c(C)ccc(C)c2C1=O (configuration not stated)
  EC50: > 200 µM
  IC50: 34.7 µM

## CS(=O)CC(=O)c1ccccn1 (configuration not stated)
  EC50: > 200 µM
  IC50: > 200 µM

## O=C(Nc1ccccc1-c1ccccc1)c1ccccc1
  EC50: > 200 µM
  IC50: 91.2 µM

## O=C(CCCN1CCC2(CC1)C(=O)NCN2c1ccccc1)c1ccccc1
  EC50: > 200 µM
  IC50: 34.7 µM

## CC(C)N(C(=O)C12C3C4C5C3C1(C(=O)O)C5C42)C(C)C (configuration not stated)
  EC50: > 661 µM
  IC50: > 661 µM

## C1N2CN3CN1CN(C2)C3.[Cu+2]
  outcome: inactive

## O=C(NC(=O)c1ccccc1)NC(=O)c1ccccc1
  EC50: > 135 µM
  IC50: > 135 µM

## Clc1ccc(OCc2nnc(CCCCCCCCc3nnc(COc4ccc(Cl)cc4)n3Nc3ccccc3)n2Nc2ccccc2)cc1
  outcome: inactive

## O=C1Nc2cc3c(cc2C(=O)N2C/C(=N/O)CC12)OCO3 (configuration not stated)
  EC50: > 324 µM
  IC50: 191 µM

## CCOP(=O)(OCC)C(C)(CC)NC(=O)C(C(F)(F)F)C(F)(F)F (configuration not stated)
  EC50: > 200 µM
  outcome: inactive
  IC50: 105 µM

## COC(=O)c1cc(C(=C2CC2)c2cc(Br)c(OC)c(C(=O)OC)c2)cc(Br)c1OC
  EC50: > 200 µM
  IC50: 14.1 µM

## CCC(c1nc2ccccc2c(=O)n1NC(=O)C(C)(C)C)C1(O)CCCCC1 (configuration not stated)
  EC50: > 200 µM
  IC50: 107 µM

## CCCCc1c2c(nc3c1CCCC3=O)CCCC2
  EC50: > 195 µM
  IC50: 28.8 µM

From PubChem BioAssay AID179 (DTP/NCI, 2004)
